Legend:
HL-60 cells = assay: Cell differentiation, NBT reduction assay; assay type: cell-based; settings: in comparison with 1α,25(OH)2D3 as control (100% activity); 4 days
Procedure: The vitamin D analog of the present invention was evaluated for its effect on cell differentiation. Falcon tissue chambers were seeded with 4×10^4 cells/cm of HL-60 cells using RPMI 1640 medium supplemented with […] FCS and gentamycin (50 μg/mL),in a final cell volume of 5 mL. The cultures were maintained at 37° C. in an atmosphere of humidified air containing 5% CO2. After 24 hours incubation, the control 1αa,25(OH)2D3 and the compound to be tested were each dissolved in ethanol and added to the cell culture with the final concentration being less than 0.2%. After 4 days, the dishes were shaken to lose adherent cells. The cells were then washed twice in RPMI medium, counted, and then assayed for differentiation markers (NBT reduction assay). Superoxide production was measured as NBT reducing activity as described by Ostrem et al. in Proc. Natl. Acad. Sci. USA, (1987) 84: 2610-2614. HL-60 cells at 1×10^6/mL were mixed with an equal volume of freshly prepared solution of phorbol 12-myristate 13-acetate (200 ng/mL) and NBT (2 μg/mL) and incubated for 30 minutes at 37° C. The percentage of cells containing black formazan deposits was determined using a hemacytometer. […]

NMRI mice = assay: In vivo determination of calcium levels; settings: for Body Weight / Femur Ca / Serum Ca: 7 consecutive days
Procedure: Eight week old, male NMRI mice were obtained from the Animal Center of Leuven (Belgium) and fed a vitamin D-replete diet (0.2% calcium, 1% phosphate, 2000 U vitamin D/kg; Hope Farms, Woerden, The Netherlands). […] The control group was injected with vehicle (arachis oil). […] The following parameters were evaluated: serum calcium and femur calcium. Serum calcium was measured by a microcolorimetric assay (Sigma, St. Louis, Mo.). Femurs were removed and femur calcium content was measured in HCl-dissolved bone ash (obtained by heating for 24 hours in an oven at 100° C.), using the same technique as for serum calcium.

[1] = molecular target: T1, Human Vitamin D Binding Protein (hDBP) (Homo sapiens, UniProt P02774); assay: Affinity for human vitamin D binding protein, displacement of [3H]1α,25(OH)2D3; settings: relative affinity at 50% displacement of [3H]1α,25(OH)2D3; 1α,25(OH)2D3 assigned 100%; hDBP 0.18 μM, 3 hours at 4° C.
T1 sequence (P02774 17-474): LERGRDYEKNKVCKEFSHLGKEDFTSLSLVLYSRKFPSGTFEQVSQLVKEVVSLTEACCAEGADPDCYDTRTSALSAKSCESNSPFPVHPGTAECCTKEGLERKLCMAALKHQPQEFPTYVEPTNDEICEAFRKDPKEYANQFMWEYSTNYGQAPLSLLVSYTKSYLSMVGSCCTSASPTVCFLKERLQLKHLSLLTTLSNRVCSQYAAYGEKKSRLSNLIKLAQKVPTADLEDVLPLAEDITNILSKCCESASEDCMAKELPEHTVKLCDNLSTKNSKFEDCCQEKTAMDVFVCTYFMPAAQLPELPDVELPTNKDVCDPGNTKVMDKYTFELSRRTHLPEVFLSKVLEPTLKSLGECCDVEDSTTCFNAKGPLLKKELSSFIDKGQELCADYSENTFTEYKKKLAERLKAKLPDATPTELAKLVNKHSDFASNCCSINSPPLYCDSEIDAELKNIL
Procedure: The solution was incubated for 3 hours at 4° C. Final phase separation was obtained by adding 0.5 mL of cold dextran-coated charcoal.

Vitamin D receptor (VDR) = molecular target: T2, Vitamin D receptor (VDR) (Sus scrofa, UniProt A3RGC1); settings: relative affinity at 50% displacement of [3H]1α,25(OH)2D3; 1α,25(OH)2D3 assigned 100%; porcine intestinal mucosa supernatant, 4° C., 20 hours
T2 sequence (A3RGC1 1-427): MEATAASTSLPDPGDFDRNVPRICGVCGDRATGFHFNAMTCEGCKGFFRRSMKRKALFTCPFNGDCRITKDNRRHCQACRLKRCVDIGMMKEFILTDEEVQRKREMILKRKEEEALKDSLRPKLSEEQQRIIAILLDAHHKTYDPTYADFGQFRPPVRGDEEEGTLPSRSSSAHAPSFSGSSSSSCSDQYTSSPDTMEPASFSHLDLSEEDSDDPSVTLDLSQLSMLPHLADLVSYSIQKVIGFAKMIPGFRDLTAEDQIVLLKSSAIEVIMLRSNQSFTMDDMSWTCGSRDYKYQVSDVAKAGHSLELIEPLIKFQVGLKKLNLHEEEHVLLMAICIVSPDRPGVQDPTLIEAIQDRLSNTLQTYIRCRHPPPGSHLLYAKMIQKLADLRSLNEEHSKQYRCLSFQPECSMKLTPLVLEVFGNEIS

MCF-7 cells = assay: Cell proliferation, [3H]thymidine incorporation; assay type: cell-based; settings: in comparison with 1α,25(OH)2D3 as control (100% activity); 72 hours incubation
Procedure: The compound of the present invention was evaluated for its effect on cell proliferation. […] The cultures were maintained at 37° C. in an atmosphere of humidified air containing 5% CO2. The MCF-7 cells were seeded at approximately 5×10^3 cells/well in the DMEM modified medium in a 96-well microtiter plate. […] Finally, 1 μCi of [^3H]thymidine was added to each well and the cells were harvested after a further 4 hour incubation period. The cells were harvested with a Packard Harvester and the cell count measured by a Packard Topcount System.

[2] = tested on: ovariectomized Sprague-Daley rats; assay: Three-month treatment efficacy in ovariectomized rats; assay type: in vivo; settings: oral
Procedure: Efficacy was tested in 6 month old Sprague-Daley rats which were sham-operated or ovariectomized (OVX). Ovariectomized animals were sacrificed after two months as a pre-treatment control group, with remaining animals being treated for three months with vehicle or with (1R,3R)-5-{(E)-(2R,5R)-2-[2-(4-hydroxy-4-methylpentyl)-spiro[4.5]dec-7-ylidene]-ethylidene}-cyclohexane-1,3-diol (at dosages of 0.3, 1,3 or 10 μg/kg/day respectively) by oral administration. At the end of treatment, blood was obtained by cardiac puncture for evaluation of serum calcium levels. Hypercalcemia was identified as a mean value 10% greater than the OVX-vehicle group. Bone efficacy was measured using micro-CT (Scanco μCT 40) evaluation of the vertebral cancellous bone volume compared to either the final OVX-group and/or the pre-treatment OVX group.

Row | SMILES | HL-60 cell differentiation, percentage activity (at 50% of the dose response) (HL-60 cells) | Body Weight (NMRI mice; 0.1 μg/kg/day i.p.) | Femur Ca (NMRI mice; 0.1 μg/kg/day i.p.) | Serum Ca (NMRI mice; 0.1 μg/kg/day i.p.) | Body Weight (NMRI mice; 0.2 μg/kg/day i.p.) | Femur Ca (NMRI mice; 0.2 μg/kg/day i.p.) | Serum Ca (NMRI mice; 0.2 μg/kg/day i.p.) | Body Weight (NMRI mice; 0.4 μg/kg/day i.p.) | Femur Ca (NMRI mice; 0.4 μg/kg/day i.p.) | Serum Ca (NMRI mice; 0.4 μg/kg/day i.p.) | estimated serum calcium level as compared with 1α,25(OH)2D3 (NMRI mice; 1α,25(OH)2D3 assigned a value of 100%, i.p., 7 days) | % hDBP binding [1] | % VDR binding (Vitamin D receptor (VDR)) | Femur Ca (NMRI mice; 5 μg/kg/day i.p.) | Femur Ca (NMRI mice; 10 μg/kg/day i.p.) | MCF-7 cell proliferation, percentage activity (at 50% of the dose response) (MCF-7 cells) | vertebral cancellous bone volume (micro-CT) ([2]; OVX rats, three months, 0.3, 1,3 or 10 μg/kg/day, vs pre-treatment and final OVX groups) | hypercalcemia (mean serum calcium 10% greater than OVX-vehicle group) ([2]; three months, at doses that increased vertebral bone volume)
1 | C=C1/C(=C\C=C2/CCC[C@]3(C)[C@@H]([C@H](C)CCCC(C)(C)O)CC[C@@H]23)C[C@@H](O)C[C@@H]1O [1α,25(OH)2D3, 1α,25-dihydroxyvitamin D3] | 100% | 30.5 g | 10.9 mg | 13.3 mg/dL | 27.8 g | 10.3 mg | 14.1 mg/dL | 23.2 g | 8.9 mg | 18.2 mg/dL | 100% |  |  |  |  |  |  | 
2 | CC(C)(O)CCC[C@@H]1CC[C@]2(CCC/C(=C\C=C3C[C@@H](O)C[C@H](O)C3)C2)C1 [(1R,3R)-5-{(E)-(2R, 5R)-2-[2-(4-hydroxy-4-methylpentyl)-spiro[4.5]dec-7-ylidene]-ethylidene}-cyclohexane-1,3-diol] | 200% |  |  |  |  |  |  |  | 10.1 mg |  |  | 3% | 10% | 11.3 mg | 12.3 mg | 450% | significantly increase vertebral bone volume above pre-treatment and final OVX groups | did not induce hypercalcemia

— patent US20060135491A1, “Vitamin D3 analog useful for the treatment of osteoporosis” (priority 2004, published 2006)
